The results in this text go back to PubChem BioAssay AID328 (DTP/NCI, 2004).

The subject of this assay is BDF1 mice, P388 leukemia ip, median survival T/C. Description: NCI In Vivo Anticancer Drug Screen. Data for tumor model P388 Leukemia (intraperitoneal) in B6D2F1 (BDF1) mice. As to conditions: endpoint: median survival time, higher = longer survival. The procedure, abridged: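 Steps: implant the tumour, treat one group with compound and another with vehicle, record survival, then divide treated by control.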

[1] abbreviates: dose: 50.0 mg/kg/injection, schedule: Q01DX001 (ip), vehicle: Klucel (hydroxypropylcellulose) (HPC).
Setting [2] is: dose: 25.0 mg/kg/injection, schedule: Q01DX009 (ip), vehicle: saline.
Setting [3] is: dose: 100.0 mg/kg/injection, schedule: Q01DX001 (ip), vehicle: Klucel (hydroxypropylcellulose) (HPC).
Where [4] appears, read: dose: 200.0 mg/kg/injection, schedule: Q01DX001 (ip), vehicle: Klucel (hydroxypropylcellulose) (HPC).
[5] abbreviates: dose: 100.0 mg/kg/injection, schedule: Q04DX003 (ip), vehicle: saline with Tween-80.
Setting [6] is: dose: 200.0 mg/kg/injection, schedule: Q04DX003 (ip), vehicle: saline with Tween-80.
The mark [7] stands for this setting: dose: 400.0 mg/kg/injection, schedule: Q04DX003 (ip), vehicle: saline with Tween-80.
Where [8] appears, read: dose: 100.0 mg/kg/injection, schedule: Q04DX003 (ip), vehicle: Klucel (hydroxypropylcellulose) (HPC).
[9] abbreviates: dose: 200.0 mg/kg/injection, schedule: Q04DX003 (ip), vehicle: Klucel (hydroxypropylcellulose) (HPC).
Setting [10] is: dose: 400.0 mg/kg/injection, schedule: Q04DX003 (ip), vehicle: Klucel (hydroxypropylcellulose) (HPC).

“And” between values parts separate entries of the source, which are not always exact repeats. Equal values may be shown once. Toxic doses and inconclusive results are not listed.

Regarding `C[NH-].C[NH-].O=C(O)C(=O)O.[Pt+2]`, the T/C is, setting by setting: (dose: 2.0 mg/kg/injection, schedule: Q04DX003 (ip), vehicle: other) 158 % of control; (dose: 3.0 mg/kg/injection, schedule: Q04DX003 (ip), vehicle: other) 200 % of control; (dose: 4.4 mg/kg/injection, schedule: Q04DX003 (ip), vehicle: other) 154 % of control; (dose: 4.5 mg/kg/injection, schedule: Q04DX003 (ip), vehicle: other) 166 % of control; (dose: 6.7 mg/kg/injection, schedule: Q04DX003 (ip), vehicle: other) 186 % of control; (dose: 10.0 mg/kg/injection, schedule: Q04DX003 (ip), vehicle: other) 190 % of control. Further, the T/C runs as follows: (dose: 10.5 mg/kg/injection, schedule: Q04DX003 (ip), vehicle: other) 170 % of control; (dose: 12.5 mg/kg/injection, schedule: Q04DX003 (ip), vehicle: other) 208 % of control; (dose: 16.0 mg/kg/injection, schedule: Q04DX003 (ip), vehicle: other) 208 % of control; (dose: 25.0 mg/kg/injection, schedule: Q04DX003 (ip), vehicle: other) 250 % of control and 254 % of control and 183 % of control; (dose: 100.0 mg/kg/injection, schedule: Q04DX003 (ip), vehicle: other) 90 % of control.

For the compound `CO[C@H]1C[C@H](O[C@H]2CC[C@@]3(C)[C@H](CC[C@@H]4[C@@H]3CC[C@]3(C)[C@@H](C5=CC(=O)OC5)CC[C@]43O)C2)O[C@H](C)[C@H]1O`, the T/C is 99 % of control (dose: 4.3 mg/kg/injection, schedule: Q01DX009 (ip), vehicle: saline with Tween-80); 107 % of control (dose: 6.4 mg/kg/injection, schedule: Q01DX009 (ip), vehicle: saline with Tween-80); 107 % of control (dose: 9.6 mg/kg/injection, schedule: Q01DX009 (ip), vehicle: saline with Tween-80).

Consider `CCCCOC(=O)C(C)OC(=O)Nc1ccccc1` (configuration not stated), for which the T/C by setting is: (dose: 100.0 mg/kg/injection, schedule: Q04DX003 (sc), vehicle: olive oil, sesame oil, peanut oil) 100 % of control; (dose: 200.0 mg/kg/injection, schedule: Q04DX003 (sc), vehicle: olive oil, sesame oil, peanut oil) 88 % of control; (dose: 400.0 mg/kg/injection, schedule: Q04DX003 (sc), vehicle: olive oil, sesame oil, peanut oil) 103 % of control.

Consider `O=C1C=CC(=O)C(c2ccccc2)=C1`, for which the T/C is, setting by setting: (dose: 12.5 mg/kg/injection, schedule: Q01DX001 (ip), vehicle: Klucel (hydroxypropylcellulose) (HPC)) 110 % of control; (dose: 25.0 mg/kg/injection, schedule: Q01DX001 (ip), vehicle: Klucel (hydroxypropylcellulose) (HPC)) 100 % of control; under setting [1], 100 % of control.

Regarding `CC(C)CCCC(C)C1CCC2C3CC=C4CC([S+](C)C)CCC4(C)C3CCC12C` (configuration not stated), the T/C (dose: 12.5 mg/kg/injection, schedule: Q01DX009 (ip), vehicle: saline) is 109 % of control and the T/C under setting [2] was 86 % of control.

With `O=C1c2ccccc2C(=O)N1C/C(=N/O)c1ccc(C(F)(F)F)cc1`, the T/C is 96 % of control under setting [1], 96 % of control under setting [3] and 96 % of control under setting [4].

For `CS(=O)(=O)OCCN(Cc1ccc(OS(C)(=O)=O)cc1)S(C)(=O)=O`, the T/C runs as follows: (dose: 50.0 mg/kg/injection, schedule: Q01DX009 (ip), vehicle: saline with Tween-80) 102 % of control; (dose: 100.0 mg/kg/injection, schedule: Q01DX009 (ip), vehicle: saline with Tween-80) 103 % of control; under setting [5], 107 % of control; (dose: 200.0 mg/kg/injection, schedule: Q01DX009 (ip), vehicle: saline with Tween-80) 110 % of control; under setting [6], 109 % of control; (dose: 400.0 mg/kg/injection, schedule: Q01DX009 (ip), vehicle: saline with Tween-80) 94 % of control. For the same compound, the T/C under setting [7] was 111 % of control.

Consider `CCCCSc1nc(N)nc2c1ncn2CC(C)CC` (configuration not stated), for which the T/C runs as follows: under setting [5], 100 % of control; under setting [6], 100 % of control; under setting [7], 100 % of control.

Take `COC(=O)c1ccc(-c2ccccc2)cc1`: the T/C reads like this: (dose: 25.0 mg/kg/injection, schedule: Q04DX003 (ip), vehicle: Klucel (hydroxypropylcellulose) (HPC)) 98 % of control; (dose: 50.0 mg/kg/injection, schedule: Q04DX003 (ip), vehicle: Klucel (hydroxypropylcellulose) (HPC)) 95 % of control; under setting [8], 94 % of control; under setting [9], 101 % of control; under setting [10], 100 % of control.

Regarding `CC(=NCc1ccccc1)C(C)(O)c1ccccc1` (configuration not stated), the T/C runs as follows: under setting [3], 100 % of control; (dose: 100.0 mg/kg/injection, schedule: Q01DX001 (ip), vehicle: saline) 109 % of control; (dose: 100.0 mg/kg/injection, schedule: Q01DX009 (ip), vehicle: Klucel (hydroxypropylcellulose) (HPC)) 110 % of control; under setting [4], 104 % of control; (dose: 200.0 mg/kg/injection, schedule: Q01DX001 (ip), vehicle: saline) 100 % of control; (dose: 200.0 mg/kg/injection, schedule: Q01DX009 (ip), vehicle: Klucel (hydroxypropylcellulose) (HPC)) 100 % of control. For the same compound, the T/C runs as follows: (dose: 400.0 mg/kg/injection, schedule: Q01DX001 (ip), vehicle: Klucel (hydroxypropylcellulose) (HPC)) 100 % of control; (dose: 400.0 mg/kg/injection, schedule: Q01DX001 (ip), vehicle: saline) 118 % of control; (dose: 400.0 mg/kg/injection, schedule: Q01DX009 (ip), vehicle: Klucel (hydroxypropylcellulose) (HPC)) 105 % of control.

Turning to `CC(C)CN1CC(=O)N2CCCN2C(=O)C1`, the T/C runs as follows: (dose: 50.0 mg/kg/injection, schedule: Q01DX005 (ip), vehicle: saline) 94 % of control; (dose: 100.0 mg/kg/injection, schedule: Q01DX005 (ip), vehicle: saline) 108 % of control; (dose: 200.0 mg/kg/injection, schedule: Q01DX005 (ip), vehicle: saline) 103 % of control.

On to `O=C(O)C1C2C=CC(C3C=CC32)C1C(=O)O` (configuration not stated), for which the T/C runs as follows: under setting [2], 97 % of control; (dose: 50.0 mg/kg/injection, schedule: Q01DX009 (ip), vehicle: saline) 93 % of control; (dose: 100.0 mg/kg/injection, schedule: Q01DX009 (ip), vehicle: saline) 97 % of control; (dose: 200.0 mg/kg/injection, schedule: Q01DX009 (ip), vehicle: saline) 96 % of control; (dose: 400.0 mg/kg/injection, schedule: Q01DX009 (ip), vehicle: saline) 102 % of control.

`C/C=C1\C(=O)OC23C=CC4C(C(=O)OC)C(O)OC(OC12)C43` (configuration not stated): the T/C is 95 % of control (dose: 0.04 mg/kg/injection, schedule: Q01DX009 (ip), vehicle: saline); 100 % of control (dose: 0.2 mg/kg/injection, schedule: Q01DX009 (ip), vehicle: saline); 110 % of control (dose: 1.0 mg/kg/injection, schedule: Q01DX009 (ip), vehicle: saline + alcohol).

As to `Cc1ccc(C(SCC(N)C(=O)O)(c2ccc(C)cc2)c2ccc(C)cc2)cc1` (configuration not stated), the T/C (dose: 65.0 mg/kg/injection, schedule: Q04DX003 (ip), vehicle: Klucel (hydroxypropylcellulose) (HPC)) was 159 % of control; the T/C under setting [8] was 175 % of control; the T/C under setting [9] is 185 % of control; the T/C (dose: 264.0 mg/kg/injection, schedule: Q04DX003 (ip), vehicle: Klucel (hydroxypropylcellulose) (HPC)) was 230 % of control and 150 % of control; the T/C under setting [10] was 177 % of control and 190 % of control (2×).

Take `CC(C)Cn1cnc2c(SCc3ccc(Cl)cc3Cl)nc(N)nc21`: the T/C is, setting by setting: (dose: 66.0 mg/kg/injection, schedule: Q01DX009 (ip), vehicle: gum acacia) 112 % of control; (dose: 100.0 mg/kg/injection, schedule: Q01DX009 (ip), vehicle: gum acacia) 95 % of control; (dose: 100.0 mg/kg/injection, schedule: Q04DX003 (ip), vehicle: gum acacia) 88 % of control; (dose: 150.0 mg/kg/injection, schedule: Q01DX009 (ip), vehicle: gum acacia) 100 % of control; (dose: 200.0 mg/kg/injection, schedule: Q01DX009 (ip), vehicle: gum acacia) 104 % of control; (dose: 200.0 mg/kg/injection, schedule: Q04DX003 (ip), vehicle: gum acacia) 88 % of control. Also, where the note is “dose: 400.0 mg/kg/injection, schedule: Q01DX009 (ip), vehicle: gum acacia”, the T/C was 120 % of control.
